What all share (assay type): biochemical
The target of one experiment is T1, CFA synthase (Escherichia coli, UniProt P0A9H7).
T1 construct: construct only in supplement
Description: turnover, LC-MS/MS and […]-NMR. The note with it: fluoromethyl donor; co-substrate dOPG.

Experiment [1] deals with T2, TPMT (Homo sapiens, UniProt P51580).
T2 construct: construct only in supplement
T2 sequence (P51580 1-245): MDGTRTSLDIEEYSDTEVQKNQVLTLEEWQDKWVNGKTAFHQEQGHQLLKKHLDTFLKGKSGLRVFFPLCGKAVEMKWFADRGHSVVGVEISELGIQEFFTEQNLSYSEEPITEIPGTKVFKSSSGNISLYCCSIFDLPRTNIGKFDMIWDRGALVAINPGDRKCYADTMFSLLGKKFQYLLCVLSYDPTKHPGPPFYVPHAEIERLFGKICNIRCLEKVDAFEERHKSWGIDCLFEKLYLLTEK
Nature of the experiment: fluoromethyl transfer kinetics. Particulars: fluoromethyl donor; thiol co-substrate as in Table 1.

Experiment [2] has as its target T2, TPMT. Nature of the experiment: methyl transfer kinetics. Particulars: methyl donor; thiol co-substrate as in Table 1.

SMILES strings stand for the structures.

T1 sequence (P0A9H7 2-382): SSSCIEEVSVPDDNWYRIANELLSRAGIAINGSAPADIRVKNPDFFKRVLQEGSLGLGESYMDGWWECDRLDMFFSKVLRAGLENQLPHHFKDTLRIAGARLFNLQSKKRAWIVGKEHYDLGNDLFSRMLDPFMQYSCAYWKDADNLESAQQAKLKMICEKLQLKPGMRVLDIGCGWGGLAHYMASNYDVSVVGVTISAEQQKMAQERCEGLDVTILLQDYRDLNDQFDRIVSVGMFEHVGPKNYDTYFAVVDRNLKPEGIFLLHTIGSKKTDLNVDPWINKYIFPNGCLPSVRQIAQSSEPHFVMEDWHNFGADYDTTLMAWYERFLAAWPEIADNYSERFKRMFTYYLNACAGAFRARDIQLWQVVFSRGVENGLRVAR

With `Nc1ncnc2c1ncn2[C@@H]1O[C@H](C[Te+](CF)CC[C@H](N)C(=O)O)[C@@H](O)[C@H]1O` [FMeTeSAM], the “turnover, LC-MS/MS and 19F-NMR” value at CFA synthase is “E. coli CFA synthase can use FMeTeSAM to catalyze cyclopropanation”. Further, the Km result on TPMT [1] is “the Km for FMeTeSAM is nearly the same as that for SAM”. With `C[S+](CC[C@H](N)C(=O)O)C[C@H]1O[C@@H](n2cnc3c(N)ncnc32)[C@H](O)[C@@H]1O` (stereo partly drawn) [SAM], the Km result at TPMT [2] is “the Km for FMeTeSAM is nearly the same as that for SAM”.

The values are drawn from publication PMC10214534, “Enzymatic Fluoromethylation Enabled by the S-Adenosylmethionine Analog Te-Adenosyl-L-(fluoromethyl)homotellurocysteine” (ACS Central Science, 2023).
